Values quoted from earlier work in patent US20070218119A1, “STEROL ENRICHED MIXED LAMMELARITY AMPHOTERICIN INTERCALATING LIPOSOMES IN SALINE AND THE PROCESS FOR THEIR PREPARATION” (priority 2004, published 2007).

Conditions: conventional Amphotericin B mixed with 0.9% Sodium Chloride (Martindale)

## C[C@@H]1[C@H](O)[C@@H](C)/C=C/C=C/C=C/C=C/C=C/C=C/C=C/[C@H](O[C@@H]2O[C@H](C)[C@@H](O)[C@H](N)[C@@H]2O)C[C@@H]2O[C@](O)(C[C@@H](O)C[C@@H](O)[C@H](O)CC[C@@H](O)C[C@@H](O)CC(=O)O[C@H]1C)C[C@H](O)[C@H]2C(=O)O [conventional Amphotericin B, Amphotericin B]
  precipitation in 0.9% Sodium Chloride: precipitation of Amphotericin B
